Assay results taken from patent EP1306084A1, “Compositions for the control of parasitic infestations in fish” (Alpharma AS, priority 1998, dated 1999).

What was measured:
[1] = Adverse or side effects observed over all trials; format: in vivo, fish; conditions: injection, bath solution or oral treatment; all dosages examined
Description: This is in regard to all the dosages that have been examined and the various administration methods which have been used.

[2] = Field trial: weight and length of recaptured tagged fish (Example 3); format: in vivo, wild sea trout (Salmo trutta); conditions: treated fish caught June 20 to August 7
Method: About 2,000 wild sea trout (Salmo trutta) were divided into two groups and marked with Carlin tags in two different colours (yellow or red) so that individuals of the groups could easily be distinguished from each other when observed in the water. The group with yellow Carlin tags were given feed containing hexaflumuron. The dose was about 3 mg of hexaflumuron per fish per day for six days. The feeding was done the last week before they were transferred to the sea in the beginning of May. The control group had red Carlin tags and was fed ordinary fish feed until sea transfer. Both groups of fish were transferred to the sea 200 metres from the river mouth of the Bondhus River in Hordaland in Norway. From sea transfer (May 8) until August 7, neighbouring rivers and estuaries round these rivers were examined every week, using fishing by application of high voltage and net fishing.
The following average lengths and weights were recorded for the fish that were caught during the period: • Control fish: Average weight 50.4 ± 48.8 grams. Average length 19.7 ± 13.3 cm. • Treated fish: Average weight 87.1 ± 69.6 grams. Average length 35.9 ± 19.1 cm.

sea lice = experiment: Oral treatment in freshwater before sea transfer, sea lice counts after natural infection (Example 4); format: in vivo, salmon (Salmo salar)
Method: The treatment dosage was 9 mg hexaflumuron per kg fish per day for 10 days. This is indicated by "Groups/Timepoints" in the figure; • Figure 2 relates to the trial in Example 2 that was carried out on Atlantic salmon (Salmo salar). […] The treatment dosage varied between 3 - 9 mg hexaflumuron and 9- 12 mg fluazuron per kg fish per day for 7 days. This is indicated by "Groups/Timepoints" in the diagram. […] The treated groups are compared to an untreated control group. The treatment dosage was 4 mg hexaflumuron per kg fish per day for 5 days. This is indicated by "Groups/Timepoints" in the figure. Cage 2 = controls, Cage 4-6 = treated groups, 16.6.97 = time point for sea transfer and 5.8.97= controls treated by bathing with deltamethrin; • Figure 4 relates to the trial described in Example 5, which was carried out on sea trout (Salmo trutta). […] The treated groups are compared with an untreated control group. The dosage for oral treatment was 4 mg hexaflumuron per kilo fish per day for 5 days, and 5 ppm hexaflumuron as a 30 minute bath treatment. This is indicated by "Groups/Timepoints" in the figure. Cage 1.4 = Controls, cage 1.3 = Oral treatment, cage 1.2 = Bath treatment. […] The treated groups are compared with an untreated control group, and one group that has been treated orally with teflubenzuron (10 mg/kg of teflubenzuron per kg fish per day for 7 days). The dosage for oral treatment was 5.6 mg hexaflumuron per kg fish per day for 7 days, and 5 ppm hexaflumuron as a 30 minute bath treatment. […] End of treatment: 22.10.97, Sea transfer: 23.10.97. […]
About 2,500 salmon (Salmo salar) of average weight 42 grams were treated orally with a daily dosage of 4 mg hexaflumuron per kilo fish for 5 days. […] The number of lice on 10 fish from each cage were counted every third week to check if there was any difference in the number of lice in the cages. […]

Q: For `O=C(NC(=O)c1c(F)cccc1F)Nc1cc(Cl)c(OC(F)(F)C(F)F)c(Cl)c1` [hexaflumuron], which “adverse or side effects” value [1] is on record?
A: No adverse or side effects have been observed

Q: What about the Average length ([2]; control fish 19.7 ± 13.3) of the same compound?
A: 35.9 ± 19.1 cm

Q: What about the Average weight ([2]; control fish 50.4 ± 48.8) of the same compound?
A: 87.1 ± 69.6 grams

Q: And the “protection from sea lice infestation after transfer to sea” value (sea lice; oral 4 mg per kilo fish daily for 5 days in freshwater)?
A: 6-9 weeks

Q: What about the “number of lice larger than Chalimus II versus control” value (sea lice; oral 4 mg per kilo fish daily for 5 days, 3 and 6 weeks after sea transfer) of the same compound?
A: significantly lower
